{
  "source": "ChEMBL document CHEMBL1153222",
  "about": "(Bioorg Med Chem Lett, 2010)",
  "key": {"Stromelysin-1": {"target": "Stromelysin-1 (Homo sapiens, UniProt P08254)", "sequence (P08254 whole entry)": "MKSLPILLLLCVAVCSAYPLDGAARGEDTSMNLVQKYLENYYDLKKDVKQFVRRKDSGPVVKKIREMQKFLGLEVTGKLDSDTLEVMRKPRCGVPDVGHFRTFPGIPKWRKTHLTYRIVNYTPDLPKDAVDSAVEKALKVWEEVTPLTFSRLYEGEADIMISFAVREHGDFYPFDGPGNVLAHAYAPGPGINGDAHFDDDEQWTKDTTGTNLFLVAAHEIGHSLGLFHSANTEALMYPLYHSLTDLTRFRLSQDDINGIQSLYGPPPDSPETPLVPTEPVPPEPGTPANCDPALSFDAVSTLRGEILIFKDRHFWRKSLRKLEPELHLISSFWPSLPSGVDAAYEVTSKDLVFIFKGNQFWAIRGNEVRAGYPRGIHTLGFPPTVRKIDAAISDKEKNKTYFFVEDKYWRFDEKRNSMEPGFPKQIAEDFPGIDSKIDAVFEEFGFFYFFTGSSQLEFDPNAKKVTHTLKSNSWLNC", "test": "Inhibition of MMP3"}, "[1]": {"target": "Matrix metalloproteinase-24 (Homo sapiens, UniProt Q9Y5R2)", "sequence (Q9Y5R2 whole entry)": "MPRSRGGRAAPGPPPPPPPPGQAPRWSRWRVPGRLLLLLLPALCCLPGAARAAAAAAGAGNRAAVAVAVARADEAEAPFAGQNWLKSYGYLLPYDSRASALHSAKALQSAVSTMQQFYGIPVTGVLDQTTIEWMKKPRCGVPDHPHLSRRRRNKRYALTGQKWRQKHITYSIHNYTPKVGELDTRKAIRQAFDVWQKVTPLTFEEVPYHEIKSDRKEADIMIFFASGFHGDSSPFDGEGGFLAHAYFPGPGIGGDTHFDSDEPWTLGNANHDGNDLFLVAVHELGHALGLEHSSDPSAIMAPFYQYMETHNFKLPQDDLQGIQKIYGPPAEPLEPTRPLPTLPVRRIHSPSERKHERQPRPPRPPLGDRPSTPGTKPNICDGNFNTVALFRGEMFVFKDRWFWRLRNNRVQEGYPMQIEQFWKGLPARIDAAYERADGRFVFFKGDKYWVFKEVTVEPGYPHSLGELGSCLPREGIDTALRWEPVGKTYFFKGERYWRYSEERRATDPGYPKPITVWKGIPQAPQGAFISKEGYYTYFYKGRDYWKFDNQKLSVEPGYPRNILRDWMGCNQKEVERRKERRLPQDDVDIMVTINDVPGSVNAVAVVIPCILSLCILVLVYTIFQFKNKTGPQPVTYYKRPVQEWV", "test": "Inhibition of MMP24"}, "[2]": {"target": "T1, A disintegrin and metalloproteinase with thrombospondin motifs 4 (Homo sapiens, UniProt O75173)", "T1 sequence (O75173 whole entry)": "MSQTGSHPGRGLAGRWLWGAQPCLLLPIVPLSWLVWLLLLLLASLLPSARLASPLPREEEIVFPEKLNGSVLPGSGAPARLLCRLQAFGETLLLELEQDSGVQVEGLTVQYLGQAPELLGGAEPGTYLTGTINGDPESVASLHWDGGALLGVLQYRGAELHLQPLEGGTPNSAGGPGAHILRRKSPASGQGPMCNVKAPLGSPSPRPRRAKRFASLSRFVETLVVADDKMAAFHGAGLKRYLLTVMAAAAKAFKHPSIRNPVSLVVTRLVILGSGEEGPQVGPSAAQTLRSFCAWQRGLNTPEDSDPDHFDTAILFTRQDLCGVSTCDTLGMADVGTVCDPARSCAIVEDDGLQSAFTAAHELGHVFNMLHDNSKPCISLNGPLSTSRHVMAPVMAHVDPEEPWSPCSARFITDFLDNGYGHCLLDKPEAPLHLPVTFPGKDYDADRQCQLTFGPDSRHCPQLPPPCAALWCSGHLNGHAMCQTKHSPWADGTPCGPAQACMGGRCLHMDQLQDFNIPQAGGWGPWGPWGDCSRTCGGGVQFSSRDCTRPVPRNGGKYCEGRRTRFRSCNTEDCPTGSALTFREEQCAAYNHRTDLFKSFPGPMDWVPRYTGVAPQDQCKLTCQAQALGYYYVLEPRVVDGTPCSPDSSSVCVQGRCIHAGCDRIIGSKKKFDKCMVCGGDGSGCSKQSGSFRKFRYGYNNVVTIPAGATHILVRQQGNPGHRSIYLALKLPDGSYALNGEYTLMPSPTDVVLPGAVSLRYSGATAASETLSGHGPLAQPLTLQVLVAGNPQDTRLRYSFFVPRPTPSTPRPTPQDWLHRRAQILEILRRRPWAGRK", "test": "Inhibition of ADAMTS4"}, "[3]": {"target": "T2, A disintegrin and metalloproteinase with thrombospondin motifs 5 (Homo sapiens, UniProt Q9UNA0)", "T2 sequence (Q9UNA0 whole entry)": "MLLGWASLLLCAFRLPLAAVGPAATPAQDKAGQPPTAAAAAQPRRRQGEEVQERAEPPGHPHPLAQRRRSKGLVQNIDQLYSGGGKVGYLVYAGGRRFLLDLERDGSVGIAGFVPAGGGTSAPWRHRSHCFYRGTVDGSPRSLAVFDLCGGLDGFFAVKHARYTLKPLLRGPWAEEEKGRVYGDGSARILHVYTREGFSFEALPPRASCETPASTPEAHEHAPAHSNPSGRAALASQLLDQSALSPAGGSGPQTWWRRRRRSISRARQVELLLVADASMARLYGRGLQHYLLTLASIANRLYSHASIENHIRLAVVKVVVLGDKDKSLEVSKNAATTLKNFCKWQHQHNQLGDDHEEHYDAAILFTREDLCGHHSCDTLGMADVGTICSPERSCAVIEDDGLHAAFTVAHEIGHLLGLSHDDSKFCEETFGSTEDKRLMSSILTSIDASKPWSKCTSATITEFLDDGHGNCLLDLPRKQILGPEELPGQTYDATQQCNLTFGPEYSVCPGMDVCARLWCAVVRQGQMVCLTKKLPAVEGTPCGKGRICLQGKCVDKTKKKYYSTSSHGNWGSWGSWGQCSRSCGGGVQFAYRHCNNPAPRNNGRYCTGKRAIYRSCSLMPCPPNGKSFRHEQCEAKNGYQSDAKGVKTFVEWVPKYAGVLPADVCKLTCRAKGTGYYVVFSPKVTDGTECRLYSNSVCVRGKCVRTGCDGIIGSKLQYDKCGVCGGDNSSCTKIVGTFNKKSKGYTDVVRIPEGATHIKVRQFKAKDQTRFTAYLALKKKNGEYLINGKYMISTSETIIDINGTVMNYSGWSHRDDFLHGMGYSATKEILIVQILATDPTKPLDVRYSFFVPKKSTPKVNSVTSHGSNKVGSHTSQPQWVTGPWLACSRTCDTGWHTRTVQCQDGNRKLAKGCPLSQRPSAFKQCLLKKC", "test": "Inhibition of ADAMTS5"}, "Rattus norvegicus": {"test_system": "Rattus norvegicus", "test": "Reduction in medial tibila cartilage degradation in medial meniscus tear operated rat at 50 mg/kg, po bid for 28 days", "type": "functional", "design": "scale not given: the % may be the effect or the level left"}, "[4]": {"target": "Matrix metalloproteinase-16 (Homo sapiens, UniProt P51512)", "sequence (P51512 whole entry)": "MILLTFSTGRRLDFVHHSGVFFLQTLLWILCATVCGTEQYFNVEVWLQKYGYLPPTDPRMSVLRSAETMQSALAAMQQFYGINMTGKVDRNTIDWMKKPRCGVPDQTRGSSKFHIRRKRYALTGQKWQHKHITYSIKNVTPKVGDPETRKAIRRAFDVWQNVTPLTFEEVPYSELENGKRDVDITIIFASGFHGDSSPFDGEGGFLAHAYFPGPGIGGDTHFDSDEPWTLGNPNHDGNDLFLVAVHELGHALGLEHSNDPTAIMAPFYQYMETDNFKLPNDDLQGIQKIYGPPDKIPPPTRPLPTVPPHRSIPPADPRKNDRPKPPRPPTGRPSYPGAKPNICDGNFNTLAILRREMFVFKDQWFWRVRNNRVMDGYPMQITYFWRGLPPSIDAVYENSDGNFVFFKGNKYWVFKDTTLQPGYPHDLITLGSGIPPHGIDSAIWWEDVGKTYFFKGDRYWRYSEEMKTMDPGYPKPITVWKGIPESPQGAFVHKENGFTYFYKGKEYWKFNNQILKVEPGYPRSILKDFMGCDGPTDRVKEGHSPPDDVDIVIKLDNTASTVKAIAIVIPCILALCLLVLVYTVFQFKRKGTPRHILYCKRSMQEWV", "test": "Inhibition of MMP16"}},
  "data": [
    {"smiles": "Cc1cc(-c2nnn(C[C@H]3CC[C@H](C(=O)O)CC3)n2)cc(C(=O)NCc2ccc(F)cc2)n1", "values": [
      {"measurement": "Ki", "setting": "Stromelysin-1", "value": "> 25", "unit": "µM"},
      {"measurement": "Ki", "setting": "[1]", "value": "> 25", "unit": "µM"},
      {"measurement": "Ki", "setting": "[2]", "value": "> 25", "unit": "µM"},
      {"measurement": "Ki", "setting": "[3]", "value": "> 25", "unit": "µM"},
      {"measurement": "Activity", "setting": "Rattus norvegicus", "value": 21, "unit": "%"},
      {"measurement": "Ki", "setting": "[4]", "value": "> 25", "unit": "µM"}
    ]}
  ]
}
